Test [1] concerns iNKT. Description: Stimulation of hCD1d-restricted human iNKT cells assessed as IFN-gamma release at 10 ng/mL by ELISA. It is filed as functional, cell-based.
A short description of test [2]: Binding affinity to T cell receptor. It is filed as cell-based, Homo sapiens.
For test [3], the system named is iNKT. Description: Stimulation of hCD1d-restricted human iNKT cells assessed as IL4 release at 10 ng/mL by ELISA. The format is functional, cell-based. A general note: In an ELISA, binding on a coated surface is turned into a signal by an enzyme label.

One compound from ChEMBL document CHEMBL1146233, “Modification of the ceramide moiety of isoglobotrihexosylceramide on its agonist activity in stimulation of invariant natural killer T cells” (J Med Chem, 2007) can be followed below.

Calls of active or inactive are those of the source. No cut-off for these calls is given here.

For `CCCCCCCCCCCCCCCCCCCCCCCCCC(=O)N[C@@H](CO[C@H]1O[C@H](CO)[C@H](O)[C@H](O)[C@H]1O)[C@H](O)[C@H](O)CCCCCCCCCCCCCC` [RGI-7000], the result in the test with iNKT [1] and in the test on iNKT [3] was Active. In test [2], this compound registered a Kd of 350 nM.

By Kd is commonly meant the equilibrium constant for the complex coming apart.
